Laboratory results from PMC11249953, “c-KIT inhibitors reduce pathology and improve behavior in the Tg(SwDI) model of Alzheimer’s disease” (Life Science Alliance, 2024).
Several values for one entry are separate records, joined by “and”; a condition that tells them apart may be missing. Identical values can stand only once.

Experiments:
[1] = test system: TgAPP mice; assay: Novel object recognition, TgAPP mice; assay type: in vivo, mouse; details: BK40143 5 mg/kg, BK40197 45 mg/kg IP, 6 wk, vs DMSO
Experimental: Novel object recognition was carried out using a 50 × 50 cm arena with clear walls covered by brown construction paper. Mice were habituated to the room for 30 min each day, before being allowed to freely explore the arena for 5 min two times, for 3 d. On the 4th d, two identical objects were placed in the arena in opposite adjacent corners, 10 cm from the corner of the arena. Mice were placed along the wall opposite from the objects and allowed to freely explore for 10 min. Approach behavior (extending nose toward the object) toward both objects was recorded manually using handheld stop watches and compared with ensure there was no preference for either neutral object. For the probe trial, one object was removed and replaced with a novel object, and mice were again allowed to freely explore for 10 min, with approach time towards the novel and familiar objects recorded. Trials in which the mice explored for less than 1 s were excluded. Discrimination index was calculated by dividing time spent exploring the novel object by total time exploring both objects and was compared for treated versus control animals.

[2] = test system: mice; assay: Elevated plus maze, source data sheets EPM (mouse line not given); assay type: in vivo
Experimental: The elevated plus maze was performed using a standard set up, with two enclosed arms and two open arms. Mice were placed at the intersection of the open and closed arms and allowed to freely explore for 5 min, two times. Time spent in the open and closed arms and number of entries into the open and closed arms were recorded.

[3] = test system: TgAPP mice; assay: Morris water maze, TgAPP mice; assay type: in vivo, mouse; parameters: Platform Distance: unit not given beside the values; Total Distance / Quad Time / Quad Distance / Trial 1 D4 / Trial 1 D4 AVG: unit not given here
Experimental: The Morris water maze was performed using a water bath 6 ft in diameter and filled with roughly 1 ft of water. The maze was divided into four quadrants, each with a visual stimulus positioned on the wall of the maze in the center of the quadrant arc. A clear platform was placed in one quadrant just beneath the surface of the water. Mice were then placed in a random non-platform quadrant and allowed to swim freely for 60 s (time was stopped and recorded if the mouse found the platform) before being placed on the platform for 15 s and returned to their cage. This was repeated for each of the three quadrants each day for 4 d. On the 5th d, the platform was removed and mice were placed in the quadrant opposite of where the platform had been and allowed to swim freely for 1 min before being returned to their cage. Time spent in the correct quadrant, latency to the platform, number of platform entries, and number of quadrant entries were recorded.

[4] = Totals (Trial 1 + Trial 2), individual animals, listed as 197
[5] = Trial 1, individual animals, listed as 197
[6] = Trial 2, individual animals, listed as 197
[7] = elevated plus maze, trial 1 + trial 2, one value per mouse, listed as 197
[8] = elevated plus maze, trial 1, one value per mouse, listed as 197
[9] = elevated plus maze, trial 2, one value per mouse, listed as 197
[10] = MWM Probe, single animal values, listed as 197
[11] = MWM Probe, single animal values, listed as 197, in s (unit assumed)
[12] = MWM training, Day 1, single animal values, listed as 197
[13] = MWM training, Day 2, single animal values, listed as 197
[14] = MWM training, Day 3, single animal values, listed as 197
[15] = MWM training, Day 4, single animal values, listed as 197

SMILES: Cc1cccc(-c2cc3nccc(N4CCOCC4)c3s2)c1 [BK40197]
- novel object recognition: time exploring the novel object [1]: spent significantly greater amounts of time exploring the novel object
- Closed Entries [2, 4]: 13 and 8 and 4 and 2 and 14 and 3 and 9
- Open Entries [2, 4]: 8 and 9 and 7 and 13 and 15 and 5 and 10
- Time Closed ([2]; Totals (Trial 1 + Trial 2), individual animals, listed as 197, in s): 299 and 472 and 180 and 74 and 440 and 274 and 198 and 409
- Time Open ([2]; Totals (Trial 1 + Trial 2), individual animals, listed as 197, in s (unit assumed)): 301 and 128 and 420 and 526 and 160 and 326 and 402 and 191
- Closed Entries AVG ([2]; Totals, group average): 8.25
- Open Entries AVG ([2]; Totals, group average): 9.5
- Time Closed AVG ([2]; Totals, group average, in s): 293.25
- Time Open AVG ([2]; Totals, group average, in s): 306.75
- Closed Entries AVG ([2]; Trial 1, group average): 3.75
- Open Entries AVG ([2]; Trial 1, group average): 6.5
- Time Closed AVG ([2]; Trial 1, group average, in s): 86.375
- Time Open AVG ([2]; Trial 1, group average, in s): 213.625
- Closed Entries [2, 5]: 3 and 4 and 1 and 8 and 0 and 7
- Open Entries [2, 5]: 5 and 6 and 8 and 4 and 11 and 1 and 9
- Time Closed ([2]; Trial 1, individual animals, listed as 197, in s): 60 and 208 and 48 and 55 and 163 and 41 and 0 and 116
- Time Open ([2]; Trial 1, individual animals, listed as 197, in s (unit assumed)): 240 and 92 and 252 and 245 and 137 and 259 and 300 and 184
- Closed Entries AVG ([2]; Trial 2, group average): 4.5
- Open Entries AVG ([2]; Trial 2, group average): 3
- Time Closed AVG ([2]; Trial 2, group average, in s): 206.875
- Time Open AVG ([2]; Trial 2, group average, in s): 93.125
- Closed Entries [2, 6]: 10 and 4 and 1 and 5 and 3 and 2
- Open Entries [2, 6]: 3 and 1 and 2 and 7 and 4
- Time Closed ([2]; Trial 2, individual animals, listed as 197, in s): 239 and 264 and 132 and 19 and 277 and 233 and 198 and 293
- Time Open ([2]; Trial 2, individual animals, listed as 197, in s (unit assumed)): 61 and 36 and 168 and 281 and 23 and 67 and 102 and 7
- Time/Entry AVG ([2]; elevated plus maze, group average): 8.7983
- Open Entries AVG ([2]; elevated plus maze, group average of totals): 14.5714
- Time Open AVG ([2]; elevated plus maze, group average of totals, in s): 96.8
- Time/Entry ([2]; elevated plus maze, total time open / total open entries, one value per mouse, listed as 197): 3.925 and 5.671 and 12.2 and 2.561 and 11.6778 and 13.5375 and 12.015
- Open Entries ([2]; elevated plus maze, totals listed by treatment group, one value per mouse, listed as 197): 12 and 7 and 2 and 44 and 9 and 8 and 20
- Totals Closed Entries [2, 7]: 22 and 15 and 11 and 38 and 10 and 3 and 12
- Totals Open Entries [2, 7]: 9 and 8 and 20 and 12 and 7 and 2 and 44
- Totals Time Open ([2]; elevated plus maze, trial 1 + trial 2, one value per mouse, listed as 197, in s): 105.1 and 108.3 and 240.3 and 47.1 and 39.7 and 24.4 and 112.7
- Totals Time Closed ([2]; elevated plus maze, trial 1 + trial 2, one value per mouse, listed as 197, in s (unit assumed)): 346 and 410.7 and 291.7 and 404.6 and 493.6 and 547.6 and 346.3
- Trial 1 Closed Entries [2, 8]: 17 and 7 and 6 and 31 and 5 and 2 and 8
- Trial 1 Open Entries [2, 8]: 6 and 8 and 12 and 10 and 1 and 15
- Trial 1 Time Closed ([2]; elevated plus maze, trial 1, one value per mouse, listed as 197, in s (unit assumed)): 123.7 and 123.9 and 82.1 and 166.6 and 229.4 and 269.8 and 138
- Trial 2 Closed Entries [2, 9]: 5 and 8 and 7 and 1 and 4
- Trial 2 Open Entries [2, 9]: 3 and 0 and 8 and 2 and 1 and 29
- Trial 2 Time Open ([2]; elevated plus maze, trial 2, one value per mouse, listed as 197, in s): 39.9 and 0 and 56.7 and 15.1 and 0.5 and 14.1 and 49
- Trial 2 Time Closed ([2]; elevated plus maze, trial 2, one value per mouse, listed as 197, in s (unit assumed)): 222.3 and 286.8 and 209.6 and 238 and 264.2 and 277.8 and 208.3
- Time/Entry AVG ([2]; group average): 38.3997
- Platform Distance [3, 10]: 0 and 0.487 and 0.423 and 1.393 and 0.128 and 0.196 and 0.299 and 0.391
- Platform Entries [3, 10]: 0 and 3 and 4 and 8 and 1 and 2
- Quad Distance [3, 10]: 2.071 and 3.416 and 4.643 and 7.432 and 1.451 and 3.963 and 3.288 and 3.437 and 3.953
- Quad Distance/Total [3, 10]: 0.09759 and 0.2373 and 0.3151 and 0.3933 and 0.09964 and 0.2157 and 0.2602 and 0.2506 and 0.2518
- Quad Entries [3, 10]: 3 and 7 and 8 and 16 and 5 and 6 and 4
- Quad Time [3, 10]: 9.1 and 12.9 and 22.8 and 25.1 and 6.9 and 11.1 and 16.2 and 14.3 and 14.6
- Total Distance [3, 10]: 21.221 and 14.396 and 14.736 and 18.898 and 14.562 and 18.377 and 12.635 and 13.714 and 15.701
- Platform Latency ([3]; MWM Probe, single animal values, listed as 197, in s): 60 and 2.1 and 31.3 and 11.1 and 21.2 and 56 and 26.7 and 7.2
- Platform Time [3, 11]: 0 and 1.9 and 1.5 and 5.2 and 0.3 and 0.7 and 1 and 1.4
- Quad Latency [3, 11]: 4.7 and 3 and 16.9 and 2.3 and 4.3 and 3.9 and 21.1 and 6.8 and 3.2
- Quad Time per Entry [3, 11]: 3.033 and 1.843 and 2.85 and 1.569 and 1.38 and 1.85 and 4.05 and 3.575 and 1.825
- Training Day 1 AVG ([3]; MWM training, Day 1, group average): 45.4333
- Training Day 1, mean of the three trials per animal ([3]; MWM training, Day 1, per-animal mean, listed as 197): 43.78 and 60 and 43.62 and 54.8167 and 46.8067 and 44.7133 and 26.0367 and 29.1267
- Training Day 1, trial 1 [3, 12]: 60 and 47.21 and 31.28 and 46.64
- Training Day 1, trial 2 [3, 12]: 11.34 and 60 and 54.03 and 25.14 and 29.4
- Training Day 1, trial 4 [3, 12]: 60 and 23.65 and 44.45 and 26.39 and 14.14 and 21.69 and 11.34
- Training Day 2 AVG ([3]; MWM training, Day 2, group average): 47.2204
- Training Day 2, mean of the three trials per animal ([3]; MWM training, Day 2, per-animal mean, listed as 197): 13.1033 and 49.5833 and 60 and 36.82 and 56.3433 and 52.21 and 40.7533 and 56.17
- Training Day 2, trial 1 [3, 13]: 7.57 and 60
- Training Day 2, trial 2 [3, 13]: 5.62 and 60 and 36.25 and 49.03 and 36.63 and 55.69
- Training Day 2, trial 4 [3, 13]: 26.12 and 28.75 and 60 and 14.21 and 6.57 and 48.51
- Training Day 3 AVG ([3]; MWM training, Day 3, group average): 28.2515
- Training Day 3, mean of the three trials per animal ([3]; MWM training, Day 3, per-animal mean, listed as 197): 11.39 and 34.5433 and 18.6367 and 42.7367 and 27.2267 and 23.27 and 38.7467 and 28.4767 and 29.2367
- Training Day 3, trial 1 [3, 14]: 9.97 and 10.56 and 13.44 and 8.21 and 13.9 and 27.12 and 60 and 23.21 and 11.51
- Training Day 3, trial 2 [3, 14]: 6.2 and 40.75 and 11.22 and 60 and 7.78 and 16.82 and 30.27 and 28.53 and 34.18
- Training Day 3, trial 4 [3, 14]: 18 and 52.32 and 31.25 and 60 and 25.87 and 25.97 and 33.69 and 42.02
- Trial 1 D4 AVG ([3]; MWM training, Day 4, Trial 1, group average): 16.0867
- Trial 1 D4 ([3]; MWM training, Day 4, Trial 1, single animal values listed by group, listed as 197): 29.9 and 18.58 and 17.08 and 9.97 and 12.28 and 11 and 6.82 and 20 and 19.15
- Training Day 4 AVG ([3]; MWM training, Day 4, group average): 27.9559
- Training Day 4, mean of the three trials per animal ([3]; MWM training, Day 4, per-animal mean, listed as 197): 18.2367 and 14.52 and 22.8833 and 26.0267 and 20.9367 and 33.48 and 29.6433 and 39.9233 and 45.9533
- Training Day 4, trial 1 [3, 15]: 33 and 13.59 and 44.97 and 60 and 41.71 and 20.44 and 36.65
- Training Day 4, trial 2 [3, 15]: 17.08 and 9.97 and 12.28 and 11 and 6.82 and 20 and 19.15 and 29.9 and 18.58
- Training Day 4, trial 4 [3, 15]: 4.63 and 20 and 11.4 and 7.08 and 14.28 and 60 and 9.78 and 53.22 and 59.28
- Morris water maze training trials: time to locate the platform ([3]; TgAPP mice, BK40143 5 mg/kg, BK40197 45 mg/kg IP, 6 wk, vs DMSO): locate the platform significantly quicker on later training trials
